Series [1] concerns wild-type and PanK2-deficient IRM32 cells. Briefly: Half-life of Coenzyme A in cells treated with labeled fosmetpantotenate or pantothenic acid. Format: cell-based. On the procedure:
The half-life of Coenzyme A (CoA) was determined for both wild-type and PanK2-deficient IRM32 cells.
Stable isotopically labeled pantothenic acid (vitamin B5) and fosmetpantotenate, a compound currently in a Phase 3 clinical trial for the treatment of […], were prepared. The PanK2-deficient cell line was treated with labeled fosmetpantotenate (100 μM) while the parental IRM32 (WT) line was treated with labeled pantothenic acid. After 24 h the media was changed to complete media and the cells were harvested at various time points. The fraction of labeled CoA, both free and total, with respect to time 0 was calculated to determine the half-life of CoA under each of these conditions.

Series [2] is described as follows: Chemical stability of fosmetpantotenate with and without acetic acid, alone and with MCC, 30° C./65% RH, reverse-phase HPLC. Format: physicochemical. Conditions: weight percent; for Phenol (%): main degradant. The method, then:
Fosmetpantotenate was prepared and purified as in Examples 1 (“with acetic acid”) and Example 28 (“without acid”). Flowability and stability were analyzed for the acetic acid-containing fosmetpantotenate and the “without acid” fosmetpantotenate, alone and when formulated with MCC.
For the MCC formulations, fosmetpantotenate was diluted 1:1 (w:w) with ethyl acetate (HPLC grade, EMD) to generate a solution of viscosity suitable for wet granulation. Porous MCC (Avicel® PH200) was sieved via 120 mesh (125 μm opening) to remove fine particles and then placed in a Freund-Vector GMX-LAB Micro high shear granulator (1 L stainless steel bowl). The impeller speed was kept at 125 rpm during the process. 40 g of 50 wt % fosmetpantotenate ethyl acetate solution (contains 20 g fosmetpantotenate) was added into 80 g substrate at approximately 8 g/min drop-wise via a glass transfer pipette to achieve a 20:80 fosmetpantotenate:MCC ratio (i.e., 20% drug loading by weight). The resulting materials were agitated for an additional 10 minutes followed by tray drying overnight at room temperature to facilitate removal of ethyl acetate.
For the stability analysis, samples of fosmetpantotenate were subdivided and transferred into separate 20 mL clear scintillation vials (about 1 g sample per vial). Closed vials were then placed individually into 5″×7″ foil pouches (CADPAK N-HD, WVTR 0.0005 g/100 in^2/day at 90% RH 40° C.). followed by heat sealing the pouches without desiccant inside. Fosmetpantotenate powder samples were weighed (3 g) and placed directly into the same foil pouches described above, and heat sealed without desiccant inside. Closed samples were stored at 30° C./65% RH and measured after 0, 2, 4, and 8 weeks.
Measurement of impurities was performed by reverse-phase HPLC, utilizing the methods in Table 10. Water:acetonitrile 95:5 (v:v) with 0.005% phosphoric acid was used to extract the API (fosmetpantotenate) from the granulation at concentration of 0.75 mg/mL on an active basis. The sample suspension was ultrasonicated for 10 minutes to ensure complete API extraction followed by filtration using 0.45 μm PTFE filters to remove insoluble materials (i.e., MCC in the granulation samples). The filtrates were then transferred to individual vials and analyzed by HPLC.

For series [3] the following is noted: reference substances; cited from earlier work.
The nature of series [4]: Chemical stability of formulations, 30° C. and 65% relative humidity, closed containers, 12 weeks, total impurities by HPLC. Format: physicochemical. On the procedure: A stability study was performed to assess the stability of fosmetpantotenate in the following formulations: 1 g fosmetpantotenate (“drug only”; containing approximately 10% acetic acid); 75 mg fosmetpantotenate EA capsules (10% ethyl acetate); 75 mg fosmetpantotenate LG-90 capsules (38% laurylglycol 90); fosmetpantotenate MCC granulation, as described in Example 2; and fosmetpantotenate mannitol granulation, as described in Example 3; and 25:75 fosmetpantotenate:HPMCAS-L Spray Dried Dispersion (SDD) granulation, as described in Example 24. Additionally, fosmetpantotenate without solid excipient or solvent (“drug only”) was stored closed in borosilicate glass vials. Formulations contained in soft gel capsules were stored in closed HDPE bottles, and solid fosmetpantotentate granulation formulations were stored in closed foil-foil packaging. Stability samples were stored at ca. −20° C. (control samples) and at 30° C. and 65% relative humidity in closed containers for 12 weeks.
The amount of total impurities was determined via integration of HPLC peak areas within 3 days after the formulations were prepared and before beginning storage (time=0 weeks). The amount of total impurities was measured again after 2 weeks, 4 weeks, 6 weeks, 8 weeks, and 12 weeks of storage. […]

A short description of series [5]: Accelerated stability of 10% drug loaded formulations, 25° C./60% RH, total related substances by HPLC. Format: physicochemical. Conditions: 10% drug loading. The method, then: Fosmetpantotenate was thinned with ethyl acetate (EtOAc) at a 1:1 weight/weight ratio, and then blended with each solid excipient using a mortar and pestle on the 0.1 g scale of fosmetpantotenate, i.e., 0.2 g 50% (fosmetpantotenate/EtOAc)+0.9 g solid. The resulting materials were dried overnight at room temperature in a HEPA hood to remove excess EtOAc.
The formulations were stored under accelerated stability conditions (25° C./60% relative humidity (RH)) for 4 weeks. Some samples were stored in “open” conditions, i.e., exposed to air; other samples were stored in closed containers. The amount of impurities was measured at beginning of storage (t=0), after 2 weeks of storage (t=2 weeks), and after 4 weeks of storage (t=4 weeks). The amount of impurities (total related substances, expressed as a percentage) was determined using the methods described in Example 26 below.
The amount of total impurities was determined via integration of HPLC peak areas within 3 days after the formulations were prepared and before beginning storage (time=0 weeks). The amount of total impurities was measured again after 2 weeks, 4 weeks, 6 weeks, 8 weeks, and 12 weeks of storage. Capsule samples for analysis were prepared by dissolving 5 capsules in a volumetric flask with H2O/ACN 50/50 (v/v) containing 0.1% (v/v) HCOOH. “Drug only” and granulation samples were prepared by adding the sample directly into a volumetric flask and diluting with H2O/ACN 50/50.

Regarding `CC(C)(COP(=O)(O)OP(=O)(O)OC[C@H]1O[C@@H](n2cnc3c(N)ncnc32)[C@H](O)[C@@H]1OP(=O)(O)O)[C@@H](O)C(=O)NCCC(=O)NCCS` [CoA, Coenzyme A], in series [1], the “half-life of CoA, PanK2-deficient versus WT cells” value is on record as “somewhat shorter in PanK2-deficient cells than in WT cells”.
On to `COC(=O)CCNC(=O)[C@H](O)C(C)(C)COP(=O)(N[C@@H](C)C(=O)OC)Oc1ccccc1` (some centres unmarked) [Fosmetpantotenate, no acid], for which the “Phenol (%)” value in series [2] (30° C./65% RH closed, t = 2 wk) is on record as 0.20%; in series [2] (30° C./65% RH closed, t = 4 wk), 0.42%; in series [2] (30° C./65% RH closed, t = 8 wk), 1.62%; in series [2] (t = 0) it was 0.12%. For the same molecule, the “Impurities, excluding phenol (%)” value came to 3.69% in series [2] (30° C./65% RH closed, t = 2 wk); 7.01% in series [2] (30° C./65% RH closed, t = 4 wk); 12.82% in series [2] (30° C./65% RH closed, t = 8 wk); 2.28% in series [2] (t = 0). In addition, the “Total impurities (%)” value in series [2] (30° C./65% RH closed, t = 2 wk) was 4.44%; in series [2] (30° C./65% RH closed, t = 4 wk), 8.54%; in series [2] (30° C./65% RH closed, t = 8 wk), 17.73%; in series [2] (t = 0) it was 2.75%.
On to `O` [Water], for which the “Viscosity (Cp)” value in series [3] was 1 Cp.
As to `COC(=O)CCNC(=O)[C@H](O)C(C)(C)COP(=O)(N[C@@H](C)C(=O)OC)Oc1ccccc1` (stereo partly drawn) [fosmetpantotenate, methyl 3-((2R)-2-hydroxy-4-(((((S)-1-methoxy-1-oxopropan-2-yl)amino)(phenoxy)phosphoryl)oxy)-3,3-dimethylbutanamido)propanoate], in series [4], the “average amount of degradation per week” value turned out to be 2.6%. For the same molecule, the “Total % Related Substances” value in series [5] (25° C./60% RH, t = 2 weeks, Closed) is recorded as 5.76%; in series [5] (25° C./60% RH, t = 2 weeks, Open) it was 5.94%; in series [5] (25° C./60% RH, t = 4 weeks, Closed), 6.39%; in series [5] (25° C./60% RH, t = 4 weeks, Open) it was 6.29%; in series [5] (t = 0), 4.80%.
